Source: article PMC4666032, “KPT-330, a potent and selective exportin-1 (XPO-1) inhibitor, shows antitumor effects modulating the expression of cyclin D1 and survivin in prostate cancer models” (BMC Cancer, 2015)

Key:
DU145 xenografts = assay: DU145 xenograft in male nude mice; type: in vivo; settings: PO Mon/Wed/Fri, vs vehicle
Description: (§1) Male CD1 nude mice (Charles River, Milan, Italy) were maintained under the guidelines established by the University of L’Aquila, Medical School and Science and Technology School Board Regulations. Experiments on animals have been approved by your local IRB in compliance with the Italian government regulation n.116 January 27, 1992 for the use of laboratory animals which is line with ARRIVE guidelines. All mice received subcutaneous flank injections of 1 x 10^6 PC3, DU145 or 22v1 cells. Tumor growth was measured bi-weekly with a Vernier caliper (length x width). Tumor weight was calculated according to the formula: TW (mg) = tumor volume (mm^3) = d2 x D/2, where d and D are the shortest and longest diameters, respectively. The effects of the treatments were examined as previously described. […]
(§2) Mice were treated by oral gavage with either vehicle control (Pluronic F-68/PVP-K29/32), KPT330 or KPT251. […] In vivo, combinational studies were evaluated by CalcuSyn (Biosoft). For the calculation of CI, the values of cell kill for a fixed tumor volume were considered (determined by the log cell kill (LCK)). LCK was determined as LCKZ (TKC)/(3.3KTd), where Td represents the mean control group doubling time required to reach a fixed tumor volume, expressed in days, whereas T and C are the same values as described above. […]

22rv1 xenografts = assay: 22rv1 xenograft in male nude mice; type: in vivo; settings: PO Mon/Wed/Fri, vs vehicle
Description: as §1, §2

Structure (SMILES)	tumor weight (DU145 xenografts)	tumor weight (22rv1 xenografts)
FC(F)(F)c1cc(-c2ncn(/C=C\c3nnco3)n2)cc(C(F)(F)F)c1 [KPT-251]	reduce tumor weight in a dose-dependent manner	reduce tumor weight in a dose-dependent manner
O=C(/C=C\n1cnc(-c2cc(C(F)(F)F)cc(C(F)(F)F)c2)n1)NNc1cnccn1 [KPT-330]	reduce tumor weight in a dose-dependent manner	reduce tumor weight in a dose-dependent manner
